Reference: patent publication US6972287B1, “Method of inhibiting amyloid protein aggregation and imaging amyloid deposits” (Pfizer Inc., priority 1999, dated 2005)
Several values for one entry are separate records, joined by “and”; a condition that tells them apart may be missing. Equal entries are not always repeated.

What was measured:
Aβ (1-40) peptide = target: T1, Aβ (1-40) peptide (Homo sapiens, UniProt P05067); assay: BAPA (Beta-Amyloid Peptide Aggregation, pH 6.0, filtration); format: biochemical; details: Aβ (1-40) 33 μM, pH 6.0, 2 to 4 hours at room temperature; replicate values; letter = synthetic lot
T1 construct: 10 μL 0.5 mg/mL Aβ (1-40) peptide in 20% HFIP
In short: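 Aggregation of human Aβ (1-40) peptide was measured in an endpoint filtration assay. The peptide was first reduced to monomer with hexafluoroisopropanol (HFIP), then used at 33 μM so it would aggregate at pH 6.0, and incubated for 2 to 4 hours at room temperature. Filter plates were washed with 100 μL phosphate buffer, impregnated with Meltilex, and counted on a Microbeta counter with background correction.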

Aβ(1-40) [1] = target: T2, Aβ(1-40) (Homo sapiens, UniProt P05067); assay: BASST (Beta-Amyloid Self-Seeding, Thioflavin T), inhibitors of self-seeded amyloid fibril growth; format: biochemical; details: 30 μM soluble Aβ(1-40), 37° C., 3 to 5 hours, thioflavin T fluorescence; replicate values; letter = synthetic lot; read-out: BASST (IC50 = μM)
T2 construct: […]; purchased Bachem, Torrance, Calif
In short: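 Self-seeded Aβ(1-40) fibril growth was run in 50 mM sodium phosphate pH 7.5, 100 mM NaCl, 0.02% NaN3, 1 M urea. Compounds were tested in 3-fold serial dilutions (top 100 μM final): 10 min on ice, then 3–5 h at 37 °C. Fibrils were read by 5 μM thioflavin T fluorescence (ex 440/em 485 nm).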

Aβ(1-40) [2] = target: T2, Aβ(1-40); assay: BASSR (Beta-Amyloid Self-Seeding Radioassay), inhibitors of self-seeded amyloid fibril growth; format: biochemical; details: 30 μM soluble Aβ(1-40) + 125I-labeled Aβ(1-40), 37° C., 3 to 5 hours; replicate values; letter = synthetic lot; ppt = precipitate; V-shaped = inhibition followed by precipitation
In short: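 Self-seeded growth of ^125I-labeled Aβ(1-40) fibrils in 50 mM sodium phosphate pH 7.5, 100 mM NaCl, 0.02% NaN3, 1 M urea; compound (3-fold dilutions from 100 μM final) preincubated 10 min on ice, then 3–5 h at 37° C. Fibrils collected by vacuum filtration on 0.2 μm filters and counted for radioactivity.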

Aβ (1-42) = target: T3, Aβ (1-42) (Homo sapiens, UniProt P05067); assay: BATYM assay (Aβ (1-42) aggregation, Thioflavin T fluorescence); format: biochemical; details: Aβ 1-42 final concentration 100 μM, 37° C., 1 day, letter = synthetic lot
T3 construct: Required Aβ (1-42) (California Peptide) was dried from its hexafluoroisopropanol (HFIP) stock solution; purchased California Peptide
In short: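 Aβ (1-42) (100 μM final, PBS pH 7.4 from DMSO) incubated with compound at 37° C. for 1 day. Aggregation read by ThT (30 μM, glycine-NaOH pH 8.5) fluorescence, ex 440/em 485 nm; inhibition as fluorescence reduction corrected for compound-alone signal, IC50 by curve fitting from two experiments in triplicate.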

T3 sequence (P05067 672-713 limits assumed): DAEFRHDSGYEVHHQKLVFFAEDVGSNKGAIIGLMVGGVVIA
T2 sequence (P05067 672-711 limits assumed): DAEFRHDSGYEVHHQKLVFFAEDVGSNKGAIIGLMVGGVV
T1 sequence (P05067 672-711 limits assumed): as above

Structure (SMILES) | melting point [°C] | IC50 (Aβ (1-40) peptide) | IC50 (Aβ(1-40) [1]) | IC50 (Aβ(1-40) [2]) | IC50 (Aβ (1-42))
O=C(O)c1cc([N+](=O)[O-])ccc1Nc1ccc(CCc2ccc(Cl)c(Cl)c2)cc1 [Example 2, 2-{4-[2-(3,4-Dichloro-phenyl)-ethyl]phenylamino}-5-nitrobenzoic acid] | 214 to 217 | 70 µM | 1 µM and 1.5 µM | 2.2 µM and 4.1 µM (2×) and 12 µM and 4.5 µM | 6.52 µM
COc1cc(Nc2ccc(CCc3ccc(Cl)c(Cl)c3)cc2)c(C(=O)O)cc1[N+](=O)[O-] [Example 3, 2-{4-[4-(3,4-Dichloro-phenyl)-ethyl]phenylamino}-4-methoxy-5-nitrobenzoic acid] | 208 to 209 | > 60 µM | 2 µM and 3 µM | 4.5 µM and 5 µM (3×) and 15 µM | 11.7 µM
O=C(O)c1ccccc1Nc1ccc(CCc2ccc(O)c(O)c2)cc1 [Example 4, 2-{4-[2-(3,4-Dihydroxy-phenyl)-ethyl]-phenylamino}benzoic acid] | 215 to 217 | 67 µM | 3 µM and 4 µM and 8 µM | 30 µM and > 100 µM | 26.3 µM and 30.7 µM
CCCCN(CCCC)c1ccc(CCc2ccc(Nc3ccccc3C(=O)O)cc2)cc1 [Example 5, 2-{4-[2-(4-Dibutylamino-phenyl)-ethyl]phenylamino}benzoic acid] | 115 to 117 | 74 µM | 4.5 µM | 70 µM and > 100 µM | 10 µM
O=C(O)c1ccccc1Nc1ccc(CCCc2ccc(Cl)c(Cl)c2)cc1 [Example 9, 2-{4-[3-(3,4-Dichlorophenyl)-propyl]phenylamino}-benzoic acid] | 120 to 126 | 75 µM | 1 µM and 2 µM | 20 µM and 30 µM and 52 µM and 40 µM | 20.1 µM and 28.2 µM and 38.6 µM
O=C(O)c1cc([N+](=O)[O-])ccc1Nc1ccc(CCCCCc2ccc(Cl)c(Cl)c2)cc1 [Example 13, 2-{4-[5-(3,4-Dichlorophenyl)pentyl]phenylamino}-5-nitrobenzoic acid] | 147 to 148 | 6 µM | 0.9 µM | 21 µM and > 100 µM (2×) and 20 µM and 15 µM | 6.41 µM
O=C(O)c1cc([N+](=O)[O-])ccc1Nc1ccc(CCCc2ccc(Cl)c(Cl)c2)cc1 [Example 15, 2-{4-[3-(3,4-Dichlorophenyl)propyl]phenylanino}-5-nitrobenzoic acid] | 153 to 155 | > 60 µM and 7 µM | 1 µM and 1.2 µM | 16 µM and 12 µM and 15 µM and 11 µM | 8.52 µM and 7.26 µM and 7.07 µM
Cc1ccc(CCc2ccc(Nc3ccc([N+](=O)[O-])cc3C(=O)O)cc2)cc1C [Example 16, 2-{4-[2-(3,4-Dimethyl-phenyl)-ethyl]phenylamino}-5-nitrobenzoic acid] | 214 to 216 | 13 µM | 3 µM (2×) and 1.1 µM and 800 nM and 600 nM | – | 12 µM and 10.3 µM
O=C(O)c1ccccc1Nc1ccc(-c2ccc(Cl)c(Cl)c2)cc1 [Example 18, 2-[4-(3,4-Dichlorophenyl)phenylamino]benzoic acid] | > 220 | 9 µM and > 40 µM and 53 µM and 12 µM | 30 µM and > 100 µM | > 100 µM | > 100 µM
O=C(O)c1ccccc1Nc1ccc(CCCc2ccc([N+](=O)[O-])cc2)cc1 [Example 20, 2-{4-[3-(4-Nitrophenyl)propyl]phenylamino}benzoic acid] | 150 to 153 | 22 µM | 6 µM | 4.2 µM | 68.6 µM
CC(=O)Nc1ccc(CCc2ccc(Nc3ccccc3C(=O)O)cc2)cc1 [Example 35, 2-{4-[2-(4-Acetylaminophenyl)ethyl]phenylamino}benzoic acid] | 224 | 154 µM | – | > 100 µM | > 100 µM
CCCCN1CCCc2cc(C=C3SC(=S)N(CCC(=O)O)C3=O)ccc21 [Example 57, 3-{5-[(1-Butyl-1,2,3,4-tetrahydroquinolin-6-yl)methylidene]-4-oxo-2-thioxo-thiazolidin-3-yl)propanoic acid] | 214 to 215 | – | 1.5 µM | 4.8 µM | 4 µM
CCCCN1CCCc2cc(C=C3SC(=S)N(CCCC(=O)O)C3=O)ccc21 [Example 58, 4-{5-[(1-Butyl-1,2,3,4-tetrahydroquinolin-6-yl)methylidene]-4oxo-2-thioxo-thiazolidin-3-yl)butanoic acid] | 152 to 154 | – | 1 µM | 3.5 µM | 5.1 µM
O=C(O)c1cc([N+](=O)[O-])ccc1Nc1ccc(CCc2ccc(-c3ccccc3)cc2)cc1 [Example 62, 2-[4-(2-Biphenyl-4-yl-ethyl)phenylamino]-5-nitro-benzoic acid] | 239 to 244 | – | 1.5 µM | > 100 µM | 8.98 µM
O=C(O)c1cc(F)ccc1Nc1ccc(CCc2ccc(Cl)c(Cl)c2)cc1 [Example 71, 2-{4-[2-(3,4-Dichloro-phenyl)-ethyl]-phenylamino}-5-fluoro-benzoic acid] | 180 to 182 | > 60 µM | 3 µM | > 100 µM | –
O=C(O)c1cc([N+](=O)[O-])ccc1Nc1ccc(CCc2ccc(Cl)cc2Cl)cc1 [Example 77, 2-{4-[2-(2,4-Dichloro-phenyl)-ethyl]-phenylamino}-5-nitro-benzoic acid] | 200.5 to 202.5 | > 60 µM | – | 18 µM and 15 µM | 9.49 µM
CCCCN(CCCC)c1ccc(CCc2ccc(Nc3ccc([N+](=O)[O-])cc3C(=O)O)cc2)cc1 [Example 79, 2-{4-[2-(4-Dibutylamino-phenyl)-ethyl]-phenylamino}-5-nitro-benzoic acid] | > 260 | 51 µM | 1 µM and 300 nM (3×) | – | 9.14 µM
COc1ccc(CCc2ccc(Nc3ccccc3C(=O)O)cc2)cc1OC [Example 116, 2-{4-[2-(3,4-Dimethoxy-phenyl)-ethyl]-phenylamino}-benzoic acid] | 159 to 161 | 96 µM | 18 µM and 30 µM | > 100 µM | –
O=C(O)c1ccccc1Nc1cccc(CCc2ccc(Cl)cc2)c1 [Example 123, 2-{3-[2-(4-Chloro-phenyl)-ethyl]-phenylamino}-benzoic acid] | 155 to 157 | > 60 µM | – | – | 70.8 µM and 85.2 µM
Cc1ccc(CCc2cccc(Nc3ccccc3C(=O)O)c2)cc1C [Example 124, 2-{3-[2-(3,4-Dimethyl-phenyl)-ethyl]-phenylamino}-benzoic acid] | 182 to 184 | – | 10 µM | > 100 µM | 62.7 µM
O=C(O)c1ccccc1Nc1ccc(CCc2cccc(Cl)c2)cc1 [Example 128, 2-{4-[2-(3-Chloro-phenyl)-ethyl]-phenylamino}-benzoic acid] | 152 to 154 | > 60 µM | – | – | 75 µM and > 60 µM
O=C(O)c1ccccc1Nc1ccc(CCc2ccc(-c3ccccc3)cc2)cc1 [Example 129, 2-[4-(2-Biphenyl-4-yl-ethyl)-phenylamino]-benzoic acid] | 200 to 202 | > 102 µM | 10 µM and 3 µM and 2 µM (2×) | – | > 100 µM
O=C(O)c1ccccc1Nc1ccc(CCc2ccc(Cl)cc2Cl)cc1 [Example 130, 2-{4-[2-(2,4-Dichloro-phenyl)-ethyl]-phenylamino}-benzoic acid] | 181 to 183 | 238 µM | – | > 100 µM | 47.5 µM
O=C(O)c1ccc(Nc2ccc(CCc3ccc(Cl)c(Cl)c3)cc2)cc1 [Example 132, 4-{4-[2-(3,4-Dichloro-phenyl)-ethyl]-phenylamino}-benzoic acid] | 214 to 215 | – | 10 µM | > 100 µM | > 100 µM
O=C(O)c1ccccc1Nc1ccc(-c2cc(Cl)cc(Cl)c2)cc1 [Example 137, 2-(3′,5′-Dichloro-biphenyl-4-ylamino)-benzoic acid] | > 220 | 52 µM | 3 µM | > 100 µM | –
CCN(CC)c1ccc(Nc2ccc(CCc3ccc(Cl)c(Cl)c3)cc2)c(C(=O)O)c1 [Example 151, 2-{4-[2-(3,4-Dichloro-phenyl)-ethyl]-phenylamino}-5-diethylamino-benzoic acid] | 106 to 110 | 108 µM | – | > 100 µM | > 100 µM
